From the NIST ThermoML archive (doi:10.1016/j.jct.2017.03.006)
± gives the expanded uncertainty stated by the source.

Assay: xn = mol fraction of the nth substance listed
Conditions: Liquid; for mass density: 293.15 K, Vibrating tube method; for viscosity: 100 kPa, Concentric cylinders viscometry

Cc1ccc(C)c(C)c1 [1,2,4-trimethylbenzene] + CCC(C)O
Conditions	mass density [kg/m3]	viscosity [mPa·s]
303.15 K, x2 = 0	–	0.779 ± 0.017
303.15 K, x2 = 0.1001	–	0.774 ± 0.017
303.15 K, x2 = 0.2261	–	0.786 ± 0.017
303.15 K, x2 = 0.3	–	0.802 ± 0.017
303.15 K, x2 = 0.3966	–	0.858 ± 0.018
303.15 K, x2 = 0.5298	–	0.923 ± 0.02
303.15 K, x2 = 0.6001	–	1.01 ± 0.021
303.15 K, x2 = 0.7001	–	1.16 ± 0.024
303.15 K, x2 = 0.7997	–	1.4 ± 0.029
303.15 K, x2 = 0.9001	–	1.8 ± 0.037
313.15 K, x2 = 0	–	0.692 ± 0.015
313.15 K, x2 = 0.1001	–	0.687 ± 0.015
313.15 K, x2 = 0.2261	–	0.689 ± 0.015
313.15 K, x2 = 0.3	–	0.698 ± 0.015
313.15 K, x2 = 0.3966	–	0.74 ± 0.016
60000 kPa, x2 = 0.3011	892.5 ± 0.8	–
60000 kPa, x2 = 0.4002	886.9 ± 0.8	–
60000 kPa, x2 = 0.5001	880.9 ± 0.8	–
60000 kPa, x2 = 0.5997	874.4 ± 0.8	–
60000 kPa, x2 = 0.6999	867.7 ± 0.8	–
60000 kPa, x2 = 0.7999	860.4 ± 0.8	–
60000 kPa, x2 = 0.9	852.5 ± 0.8	–
70000 kPa, x2 = 0	912.6 ± 0.8	–
70000 kPa, x2 = 0.1	908.3 ± 0.8	–
70000 kPa, x2 = 0.1989	903 ± 0.8	–
70000 kPa, x2 = 0.3011	897.3 ± 0.8	–
70000 kPa, x2 = 0.4002	891.8 ± 0.8	–
70000 kPa, x2 = 0.5001	885.8 ± 0.8	–
70000 kPa, x2 = 0.5997	879.4 ± 0.8	–
70000 kPa, x2 = 0.6999	872.7 ± 0.8	–
70000 kPa, x2 = 0.7999	865.5 ± 0.8	–
70000 kPa, x2 = 0.9	857.5 ± 0.8	–
80000 kPa, x2 = 0	916.9 ± 0.8	–
80000 kPa, x2 = 0.1	912.9 ± 0.8	–
80000 kPa, x2 = 0.1989	907.6 ± 0.8	–
80000 kPa, x2 = 0.3011	902 ± 0.8	–
80000 kPa, x2 = 0.4002	896.4 ± 0.8	–
80000 kPa, x2 = 0.5001	890.4 ± 0.8	–
80000 kPa, x2 = 0.5997	884 ± 0.8	–
80000 kPa, x2 = 0.6999	877.3 ± 0.8	–
80000 kPa, x2 = 0.7999	870.1 ± 0.8	–
80000 kPa, x2 = 0.9	862.3 ± 0.9	–
90000 kPa, x2 = 0	921.1 ± 0.8	–
90000 kPa, x2 = 0.1	917.2 ± 0.8	–
90000 kPa, x2 = 0.1989	912 ± 0.8	–
90000 kPa, x2 = 0.3011	906.4 ± 0.8	–
90000 kPa, x2 = 0.4002	900.9 ± 0.8	–
90000 kPa, x2 = 0.5001	894.9 ± 0.8	–
90000 kPa, x2 = 0.5997	888.6 ± 0.8	–
90000 kPa, x2 = 0.6999	881.9 ± 0.8	–
90000 kPa, x2 = 0.7999	874.8 ± 0.9	–
90000 kPa, x2 = 0.9	866.8 ± 0.9	–
100000 kPa, x2 = 0	925.1 ± 0.8	–
100000 kPa, x2 = 0.1	921.4 ± 0.8	–
100000 kPa, x2 = 0.1989	916.2 ± 0.8	–
100000 kPa, x2 = 0.3011	910.6 ± 0.8	–
100000 kPa, x2 = 0.4002	905.1 ± 0.8	–
100000 kPa, x2 = 0.5001	899.2 ± 0.8	–
100000 kPa, x2 = 0.5997	892.9 ± 0.8	–
100000 kPa, x2 = 0.6999	886.2 ± 0.9	–
100000 kPa, x2 = 0.7999	879 ± 0.9	–
100000 kPa, x2 = 0.9	871.2 ± 0.9	–
110000 kPa, x2 = 0	929 ± 0.8	–
110000 kPa, x2 = 0.1	925.4 ± 0.8	–
110000 kPa, x2 = 0.1989	920.3 ± 0.8	–
110000 kPa, x2 = 0.3011	914.8 ± 0.8	–
110000 kPa, x2 = 0.4002	909.2 ± 0.8	–
110000 kPa, x2 = 0.5001	903.4 ± 0.8	–
110000 kPa, x2 = 0.5997	897.1 ± 0.9	–
110000 kPa, x2 = 0.6999	890.4 ± 0.9	–
110000 kPa, x2 = 0.7999	883.3 ± 0.9	–
110000 kPa, x2 = 0.9	875.4 ± 0.9	–
120000 kPa, x2 = 0	932.8 ± 0.8	–
120000 kPa, x2 = 0.1	929.3 ± 0.8	–
120000 kPa, x2 = 0.1989	924.2 ± 0.8	–
120000 kPa, x2 = 0.3011	918.7 ± 0.8	–
120000 kPa, x2 = 0.4002	913.2 ± 0.8	–
120000 kPa, x2 = 0.5001	907.4 ± 0.8	–
120000 kPa, x2 = 0.5997	901.2 ± 0.9	–
120000 kPa, x2 = 0.6999	894.4 ± 0.9	–
120000 kPa, x2 = 0.7999	887.3 ± 0.9	–
120000 kPa, x2 = 0.9	879.5 ± 0.9	–
130000 kPa, x2 = 0	936.4 ± 0.8	–
130000 kPa, x2 = 0.1	933.1 ± 0.8	–
130000 kPa, x2 = 0.1989	928 ± 0.8	–
130000 kPa, x2 = 0.3011	922.6 ± 0.8	–
130000 kPa, x2 = 0.4002	917.1 ± 0.8	–
130000 kPa, x2 = 0.5001	911.3 ± 0.9	–
130000 kPa, x2 = 0.5997	905.1 ± 0.9	–
130000 kPa, x2 = 0.6999	898.4 ± 0.9	–
130000 kPa, x2 = 0.7999	891.2 ± 0.9	–
130000 kPa, x2 = 0.9	883.4 ± 0.9	–
140000 kPa, x2 = 0	939.9 ± 0.8	–
140000 kPa, x2 = 0.1	936.7 ± 0.8	–
140000 kPa, x2 = 0.1989	931.6 ± 0.8	–
140000 kPa, x2 = 0.3011	926 ± 0.8	–
140000 kPa, x2 = 0.4002	920.5 ± 0.8	–
140000 kPa, x2 = 0.5001	914.9 ± 0.9	–
140000 kPa, x2 = 0.5997	908.7 ± 0.9	–
140000 kPa, x2 = 0.6999	901.9 ± 0.9	–
140000 kPa, x2 = 0.7999	894.7 ± 0.9	–
140000 kPa, x2 = 0.9	887 ± 1	–
